Values joined by “and” are separate entries in the source; they are usually repeats but may differ in a detail not shown here. Equal entries are not always repeated. “Also recorded” adds a separate entry of the source.
Columns and labels:
[1] = target: T1, Kv7.2 S303A channels (Homo sapiens, UniProt O43526, S303A); experiment: Whole-cell patch-clamp on homomeric Kv7.2 S303A mutant channels; assay type: cell-based; details: 10 μM RET or 1 μM 60
T1 construct: expressed in transfected cells; host or cells: CHO cells, transient transfection (pcDNA3.1)
Source text: Current scale, 200 pA; time scale, 200 ms. (B,C) Dose–response curves reporting the effects of the 3 indicated compounds on the V1/2 shift (ΔV1/2) in mV (B) and on maximal current density (Idrug/Icontrol; C) calculated at +20 mV for Kv7.2/Kv7.3 channels.
Channel subunits were expressed in Chinese hamster ovary (CHO) cells by transient transfection, using plasmids containing cDNAs encoding human Kv7.2 and/or Kv7.3, all cloned in the pcDNA3.1 vector. According to the experimental protocol, these plasmids were expressed individually or in combination, together with a plasmid-expressing enhanced green fluorescent protein (Clontech, Palo Alto, CA) used as a transfection marker. Total cDNA in the transfection mixture was kept at 4 μg. CHO cells were grown in 100 mm plastic Petri dishes in Dulbecco’s modified Eagle’s medium containing 10% fetal bovine serum, nonessential amino acids (0.1 mM), penicillin (50 U/mL), and streptomycin ([…]) in a humidified atmosphere at 37 °C with 5% CO2.
Currents from CHO cells were recorded at room temperature (20–22 °C) using the whole-cell configuration of the patch-clamp technique, with glass micropipettes of 3–5 MΩ resistance. During the recording, constant perfusion of extracellular solution was maintained. […] The pipette (intracellular) solution contained (in mM): 140 KCl, 2 MgCl2, 10 EGTA, 10 HEPES, 5 Mg^2+-ATP, at pH 7.3–7.4, with KOH. […]

[2] = tested on: PTZ-induced seizures; experiment: Pentylenetetrazol (PTZ)-induced acute seizures in mice; assay type: in vivo, C57Bl/6 mice; details: for Seizure score (Lüttjohann's scale): 30 min before PTZ 100 mg/kg s.c.; for Latency to maximal seizures: 30 min before PTZ; for Survival rate in PTZ seizure model: end of 60 min observation; for Minimum effective dose: i.p., PTZ model
Procedure: A subcutaneous (s.c.) injection of 100 mg/kg PTZ in mice is able to trigger convulsive behavior whose intensity can be assessed and quantified according to the revised Lüttjohann’s scale (see Materials and Methods),[40] using a 9-point severity score ranging from 0 (whisker trembling) to 8 (wild jumping). For each animal, the maximal severity score (Figure 5A) and the time latency required to reach such values (Figure 5B) were recorded.
Food and water were available ad libitum. Animals were experimentally naive and were used only once.
Thus, each dose was dissolved to allow injection of 0.01 mL/g, i.p. The control group was represented by mice injected only with vehicle solution (saline containing 2% Tween-20 and 2% PEG-400).
PTZ was injected, and animals were placed in clear Plexiglass boxes for observation of seizure activity. The severity of convulsions (from minimal “clonic” to maximal “generalized tonic–clonic”) as well as the latency to onset of maximal seizure was recorded.
0 = whisker trembling, 1 = sudden behavioral arrest, 2 = facial jerking, 3 = neck jerks, 4 = clonic seizures (sitting), 5 = tonic clonic seizures (lying on belly), 6 = clonic seizures (lying on side), 7 = tonic clonic seizures (lying on side), 8 = wild jumping. The behavioral assessments described above were performed in a blind manner and the observers had to reach a unanimous agreement regarding the scoring of the behavior.
The number of animals needed for the experiment was determined using the power analysis software GPower version 3.1.92. The required minimum sample size was 8 mice per group. Statistical analyses were performed using GraphPad Prism (GraphPad Software, LaJolla, CA) using a one-way analysis of variance with the Tukey post-hoc test. The P value of <0.05 was accepted as indicative of a statistically significant difference.

[3] = target: Kv7.2/Kv7.3 channels (Homo sapiens, UniProt O43525+O43526); experiment: FluxOR thallium-sensitive fluorescence-based assay in CHO cells stably expressing Kv7.2 + Kv7.3; assay type: cell-based; design: expressed in transfected cells; details: for Slope of the fluorescent signal at 10 μM: initial slope of FluxOR signal between 5 and 15 s, mean ± SEM; for EC50: FluxOR dose-response, slope parameter, read-out: EC50 (initial slope of the fluorescence signal)
Procedure: While assay robustness in Kv7.2/Kv7.3-expressing cells was high (Z′ factor > 0.5),[27] the Z′ factor calculated in CHO cells expressing Kv7.2 subunits alone was <0.5; thus, all subsequent pharmacological screens were performed in Kv7.2/Kv7.3-expressing cells. […] The Kv7.2/Kv7.3-stable cell line was generated using a plasmid-based PiggyBac transposon system that enables genomic integration of multiple independent transposons containing distinct cDNA sequences. cDNAs for KCNQ2 and KCNQ3 genes (encoding for Kv7.2 and Kv7.3, respectively) were cloned into two different PiggyBac expression vectors (pB-CMV-MCS-EF1α-RedPuro, System Biosciences), and these two plasmids, together with a plasmid encoding for the transposase (System Biosciences), were transfected into CHO cells using Lipofectamine 2000 (Invitrogen) as indicated in the protocol provided by the seller company.
The selected clone stably expressing Kv7.2/Kv7.3 channels was grown in DMEM supplemented with 10% FBS, 50 U/mL Pen-Strep, 2 mM L-glutamine (all purchased from Gibco), and 4 μg/mL puromycin (Sigma) in a humidified atmosphere at 37 °C with 5% CO2. […] A kinetic dispense microplate reader (FLUOstar Optima) was used to read the plate, setting the excitation filter at 485 nm and the emission filter at 520 nm; “Stimulus buffer” prepared as indicated in the protocol was automatically added to wells after 5 s of recording; the plate was read every 1 s, for 50 s. The results were analyzed using Optima Data Analysis and Microsoft Excel.
Only experiments resulting in a Z′ > 0.5 were considered. Data shown (Figures 1D,E,F,G and 3B) were obtained from at least three independent experiments.
Data were analyzed using the GraphPad Prism 8.0.2 (GraphPad Software, LaJolla, CA). Statistically significant differences in the initial slope of the curves were evaluated through ordinary one-way ANOVA, and multiple comparisons were corrected with the Tukey test. […] Indicated EC50 values are the mean of at least three independent experiments ± standard error of the mean (SEM).

[4] = 3 mg/kg i.p., listed as Retigabine

## CCOC(=O)Nc1ccc(NCc2ccc(F)cc2)cc1N [RET, retigabine]
[1]
  Kv7 opening ability in S303A channels: slightly but significantly reduced
[2]; 1 mg/kg i.p.
  Seizure score (Lüttjohann's scale): 6.9 ± 0.3
[2]; 3 mg/kg i.p.
  Latency to maximal seizures: 1041.4±223.2 (at 3 mg/Kg) s
  Seizure score (Lüttjohann's scale): 7.3±0.3 (at 3 mg/Kg)
  Survival rate in PTZ seizure model: 40% (at 3 mg/Kg)
[2]; [4]
  Seizure score (Lüttjohann's scale): 7.3 ± 0.3
  Latency to maximal seizures: 1041.4 ± 223.2 s
[2]; 3 mg/kg i.p., listed as retigabine
  Survival rate in PTZ seizure model: 40%
[2]
  Minimum effective dose: 3 mg/kg
[3]; 10 μM
  Slope of the fluorescent signal at 10 μM: 0.0270±0.0052
[3]
  EC50: 11.2 ± 1.6 µM

## CC(C)(C)CC(=O)Nc1ccc(NCc2ccc(C(F)(F)F)cc2)c(F)c1N [compound 60, N-(2-Amino-3-fluoro-4-((4-(trifluoromethyl)benzyl)amino)phenyl)-3,3-dimethylbutanamide]
[1]
  Kv7 opening ability in S303A channels: slightly but significantly reduced
[2]; 0.3 mg/kg i.p.
  Latency to maximal seizures: 1159.7 ± 169.4 s and 1159.7±169.4 (at 0.3 mg/Kg) s
[2]; 1 mg/kg i.p., surviving/treated animals
  Animals surviving in PTZ seizure model: 8/8
[2]; compound 60 with XE991 3 mg/kg i.p. pretreatment
  Survival rate in PTZ seizure model after XE991 pretreatment: 75%
[2]
  Minimum effective dose: 0.3 mg/kg
[3]; 10 μM, compared with retigabine or the reference compound of the subseries
  Kv7 opening activity (in words): enhanced; also recorded: higher than that of retigabine
[3]; 10 μM
  Slope of the fluorescent signal at 10 μM: 0.0594±0.0026
[3]
  EC50: 3.2 ± 1.7 µM

— paper PMC9421656, “Beyond Retigabine: Design, Synthesis, and Pharmacological Characterization of a Potent and Chemically Stable Neuronal Kv7 Channel Activator with Anticonvulsant Activity” (Journal of Medicinal Chemistry, 2022)
